The source made the active and inactive calls.
Key:
[1] = target: ORF 73 (Human herpesvirus 8, UniProt O40947); experiment: inhibitors of C-LANA binding to LBS DNA, dose response, biochemical, fluorescence polarization, cherry-picked samples (AID 504725); parameters: species or system Human gammaherpesvirus 8;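 also: fluorescence polarization of a labeled DNA duplex reporting LANA DNA binding; potency is for inhibitors that block LANA binding to the DNA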
[2] = target: T1, Insulin-degrading enzyme (Homo sapiens, UniProt P14735); experiment: activators of endogenous IDE in HEK cells, dose response, cell-based, fluorescence polarization (AID 588439); format: functional
T1 sequence (P14735 whole entry): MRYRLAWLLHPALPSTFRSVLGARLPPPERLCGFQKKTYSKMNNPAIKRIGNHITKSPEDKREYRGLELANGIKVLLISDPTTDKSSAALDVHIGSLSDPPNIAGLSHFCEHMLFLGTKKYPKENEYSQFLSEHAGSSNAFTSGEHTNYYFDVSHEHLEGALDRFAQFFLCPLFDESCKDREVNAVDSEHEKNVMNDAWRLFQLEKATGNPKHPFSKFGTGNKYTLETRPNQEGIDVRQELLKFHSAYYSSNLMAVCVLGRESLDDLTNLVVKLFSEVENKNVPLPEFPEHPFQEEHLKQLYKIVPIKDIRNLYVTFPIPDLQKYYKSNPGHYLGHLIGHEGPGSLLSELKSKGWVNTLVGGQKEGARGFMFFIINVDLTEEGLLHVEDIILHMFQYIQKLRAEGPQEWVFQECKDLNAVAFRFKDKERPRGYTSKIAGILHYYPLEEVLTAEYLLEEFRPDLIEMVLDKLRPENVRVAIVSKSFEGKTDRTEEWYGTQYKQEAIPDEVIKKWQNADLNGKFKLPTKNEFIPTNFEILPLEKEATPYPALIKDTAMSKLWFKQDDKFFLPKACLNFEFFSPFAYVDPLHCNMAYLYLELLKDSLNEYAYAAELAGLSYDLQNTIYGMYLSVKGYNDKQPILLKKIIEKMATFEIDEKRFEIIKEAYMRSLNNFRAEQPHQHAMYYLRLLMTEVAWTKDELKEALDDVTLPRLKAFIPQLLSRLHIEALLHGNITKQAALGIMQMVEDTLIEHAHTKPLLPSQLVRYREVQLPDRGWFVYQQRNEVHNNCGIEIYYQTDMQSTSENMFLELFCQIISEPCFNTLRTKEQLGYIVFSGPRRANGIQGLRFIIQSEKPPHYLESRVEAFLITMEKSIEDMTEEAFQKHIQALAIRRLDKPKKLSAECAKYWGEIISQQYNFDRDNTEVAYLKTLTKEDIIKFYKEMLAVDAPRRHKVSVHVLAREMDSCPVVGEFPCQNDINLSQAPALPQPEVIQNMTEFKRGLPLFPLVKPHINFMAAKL

[3] = target: cGMP-dependent protein kinase 1 (Homo sapiens, UniProt Q13976); format: functional;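 also: value from a kinome panel screen with PRKG1 as the panel member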
cGMP-dependent protein kinase 1, sequence (Q13976 whole entry): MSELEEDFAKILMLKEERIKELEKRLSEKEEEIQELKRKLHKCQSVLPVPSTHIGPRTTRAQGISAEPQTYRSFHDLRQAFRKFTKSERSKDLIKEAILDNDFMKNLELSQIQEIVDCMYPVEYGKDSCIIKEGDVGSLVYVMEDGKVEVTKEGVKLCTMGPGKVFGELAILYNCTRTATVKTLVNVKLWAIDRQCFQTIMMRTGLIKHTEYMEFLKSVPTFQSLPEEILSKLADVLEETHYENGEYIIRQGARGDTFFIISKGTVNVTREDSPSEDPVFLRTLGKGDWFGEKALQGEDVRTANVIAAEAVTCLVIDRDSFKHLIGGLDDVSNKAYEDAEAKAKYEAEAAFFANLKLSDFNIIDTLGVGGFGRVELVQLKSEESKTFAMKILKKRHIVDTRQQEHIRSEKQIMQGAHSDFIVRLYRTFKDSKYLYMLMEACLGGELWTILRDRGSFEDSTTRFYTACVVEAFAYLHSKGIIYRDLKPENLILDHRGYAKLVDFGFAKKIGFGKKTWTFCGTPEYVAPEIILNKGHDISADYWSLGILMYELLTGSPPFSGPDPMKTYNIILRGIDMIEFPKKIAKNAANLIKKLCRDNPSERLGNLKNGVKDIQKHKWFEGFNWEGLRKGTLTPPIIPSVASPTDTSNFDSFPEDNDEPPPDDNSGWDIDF

[4] = target: Calcium/calmodulin-dependent protein kinase type II subunit gamma (Homo sapiens, UniProt Q13555); format: functional
Calcium/calmodulin-dependent protein kinase type II subunit gamma, sequence (Q13555 whole entry): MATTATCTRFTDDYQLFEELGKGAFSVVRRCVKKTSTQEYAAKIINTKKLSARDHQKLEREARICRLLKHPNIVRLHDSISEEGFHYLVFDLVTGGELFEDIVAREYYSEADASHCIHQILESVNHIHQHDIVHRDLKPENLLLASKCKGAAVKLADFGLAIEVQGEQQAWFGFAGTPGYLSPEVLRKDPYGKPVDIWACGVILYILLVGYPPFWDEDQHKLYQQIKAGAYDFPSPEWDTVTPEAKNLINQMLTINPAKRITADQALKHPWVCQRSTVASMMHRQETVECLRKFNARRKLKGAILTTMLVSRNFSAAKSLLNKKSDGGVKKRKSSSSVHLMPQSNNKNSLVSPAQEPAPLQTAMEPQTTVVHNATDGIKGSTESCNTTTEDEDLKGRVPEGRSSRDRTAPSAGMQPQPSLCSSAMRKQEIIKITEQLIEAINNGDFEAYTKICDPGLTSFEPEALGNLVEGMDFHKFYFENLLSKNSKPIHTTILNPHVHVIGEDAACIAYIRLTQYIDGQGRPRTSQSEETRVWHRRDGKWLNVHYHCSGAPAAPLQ

[5] = target: Cyclin-dependent kinase 2 (Homo sapiens, UniProt P24941); format: functional;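 also: CDK2 measured as one member of a broad kinome profiling panel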
[6] = target: Serine/threonine-protein kinase PAK 1 (Homo sapiens, UniProt Q13153); format: functional
Serine/threonine-protein kinase PAK 1, sequence (Q13153 whole entry): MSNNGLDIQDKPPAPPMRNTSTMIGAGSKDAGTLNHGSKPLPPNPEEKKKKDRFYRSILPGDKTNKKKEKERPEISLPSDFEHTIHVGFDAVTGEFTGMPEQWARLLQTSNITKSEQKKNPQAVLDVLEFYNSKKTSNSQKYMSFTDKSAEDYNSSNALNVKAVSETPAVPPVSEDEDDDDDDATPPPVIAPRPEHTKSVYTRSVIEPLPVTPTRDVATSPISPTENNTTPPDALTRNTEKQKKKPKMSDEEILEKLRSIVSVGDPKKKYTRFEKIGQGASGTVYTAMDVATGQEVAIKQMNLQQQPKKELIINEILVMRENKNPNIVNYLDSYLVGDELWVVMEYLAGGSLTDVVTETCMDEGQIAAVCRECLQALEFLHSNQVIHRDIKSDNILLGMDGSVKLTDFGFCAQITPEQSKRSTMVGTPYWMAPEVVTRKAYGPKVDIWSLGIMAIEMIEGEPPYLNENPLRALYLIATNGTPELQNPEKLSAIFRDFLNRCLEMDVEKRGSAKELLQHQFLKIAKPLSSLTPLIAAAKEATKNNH

[7] = target: Homeodomain-interacting protein kinase 2 (Homo sapiens, UniProt Q9H2X6); format: functional;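 also: measured within a kinome-wide kinase profiling panel, HIPK2 being one panel member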
Homeodomain-interacting protein kinase 2, sequence (Q9H2X6 whole entry): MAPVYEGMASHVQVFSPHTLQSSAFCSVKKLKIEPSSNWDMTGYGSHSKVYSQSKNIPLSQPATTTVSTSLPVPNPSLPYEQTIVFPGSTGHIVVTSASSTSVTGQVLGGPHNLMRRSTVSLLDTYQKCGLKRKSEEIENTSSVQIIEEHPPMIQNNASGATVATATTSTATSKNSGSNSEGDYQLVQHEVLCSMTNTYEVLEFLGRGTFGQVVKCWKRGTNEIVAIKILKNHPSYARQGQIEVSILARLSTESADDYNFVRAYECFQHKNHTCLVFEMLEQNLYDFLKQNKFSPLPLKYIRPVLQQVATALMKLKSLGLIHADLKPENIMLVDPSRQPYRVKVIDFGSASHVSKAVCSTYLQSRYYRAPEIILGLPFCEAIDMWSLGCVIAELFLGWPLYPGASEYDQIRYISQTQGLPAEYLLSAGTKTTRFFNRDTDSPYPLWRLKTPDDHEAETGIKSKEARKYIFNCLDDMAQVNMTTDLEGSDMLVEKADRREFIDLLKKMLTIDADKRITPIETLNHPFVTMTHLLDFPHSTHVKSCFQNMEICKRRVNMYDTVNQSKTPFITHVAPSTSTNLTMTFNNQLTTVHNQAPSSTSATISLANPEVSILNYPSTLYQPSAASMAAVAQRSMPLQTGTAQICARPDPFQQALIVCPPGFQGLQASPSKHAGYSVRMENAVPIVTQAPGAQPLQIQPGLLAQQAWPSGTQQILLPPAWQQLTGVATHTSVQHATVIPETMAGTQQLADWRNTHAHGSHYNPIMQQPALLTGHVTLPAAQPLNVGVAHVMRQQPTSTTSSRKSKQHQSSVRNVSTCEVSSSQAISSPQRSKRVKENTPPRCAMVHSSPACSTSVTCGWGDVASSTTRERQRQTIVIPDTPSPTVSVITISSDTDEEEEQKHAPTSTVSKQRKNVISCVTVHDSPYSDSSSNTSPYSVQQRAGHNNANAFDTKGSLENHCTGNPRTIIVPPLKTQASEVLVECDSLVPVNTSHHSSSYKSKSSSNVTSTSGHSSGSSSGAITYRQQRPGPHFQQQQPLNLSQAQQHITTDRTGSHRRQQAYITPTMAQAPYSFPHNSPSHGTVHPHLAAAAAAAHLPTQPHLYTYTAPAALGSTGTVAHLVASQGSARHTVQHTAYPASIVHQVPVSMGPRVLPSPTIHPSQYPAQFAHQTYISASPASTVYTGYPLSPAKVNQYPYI

[8] = target: MAP/microtubule affinity-regulating kinase 3 (Homo sapiens, UniProt P27448); format: functional;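 also: MARK3 affinity measured as one member of a kinome panel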
MAP/microtubule affinity-regulating kinase 3, sequence (P27448 whole entry): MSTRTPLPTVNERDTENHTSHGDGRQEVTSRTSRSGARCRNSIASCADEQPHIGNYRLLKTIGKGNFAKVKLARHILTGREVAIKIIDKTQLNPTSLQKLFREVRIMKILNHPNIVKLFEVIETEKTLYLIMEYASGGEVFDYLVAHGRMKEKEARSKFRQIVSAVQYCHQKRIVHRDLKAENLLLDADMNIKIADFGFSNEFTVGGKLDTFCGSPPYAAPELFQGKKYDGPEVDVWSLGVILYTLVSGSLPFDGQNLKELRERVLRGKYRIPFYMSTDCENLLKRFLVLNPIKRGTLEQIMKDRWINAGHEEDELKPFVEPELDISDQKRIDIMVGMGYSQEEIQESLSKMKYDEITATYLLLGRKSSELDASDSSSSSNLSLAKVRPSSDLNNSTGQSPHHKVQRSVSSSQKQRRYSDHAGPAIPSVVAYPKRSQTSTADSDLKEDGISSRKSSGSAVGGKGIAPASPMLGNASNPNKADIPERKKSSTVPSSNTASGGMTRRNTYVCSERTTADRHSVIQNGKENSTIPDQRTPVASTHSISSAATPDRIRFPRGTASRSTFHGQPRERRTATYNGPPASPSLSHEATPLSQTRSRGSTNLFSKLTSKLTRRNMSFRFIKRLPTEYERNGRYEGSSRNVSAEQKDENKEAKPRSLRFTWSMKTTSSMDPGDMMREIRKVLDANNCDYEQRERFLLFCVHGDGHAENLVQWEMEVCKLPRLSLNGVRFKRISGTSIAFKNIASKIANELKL

[9] = target: Mitogen-activated protein kinase kinase kinase 20 (Homo sapiens, UniProt Q9NYL2); format: functional
Mitogen-activated protein kinase kinase kinase 20, sequence (Q9NYL2 whole entry): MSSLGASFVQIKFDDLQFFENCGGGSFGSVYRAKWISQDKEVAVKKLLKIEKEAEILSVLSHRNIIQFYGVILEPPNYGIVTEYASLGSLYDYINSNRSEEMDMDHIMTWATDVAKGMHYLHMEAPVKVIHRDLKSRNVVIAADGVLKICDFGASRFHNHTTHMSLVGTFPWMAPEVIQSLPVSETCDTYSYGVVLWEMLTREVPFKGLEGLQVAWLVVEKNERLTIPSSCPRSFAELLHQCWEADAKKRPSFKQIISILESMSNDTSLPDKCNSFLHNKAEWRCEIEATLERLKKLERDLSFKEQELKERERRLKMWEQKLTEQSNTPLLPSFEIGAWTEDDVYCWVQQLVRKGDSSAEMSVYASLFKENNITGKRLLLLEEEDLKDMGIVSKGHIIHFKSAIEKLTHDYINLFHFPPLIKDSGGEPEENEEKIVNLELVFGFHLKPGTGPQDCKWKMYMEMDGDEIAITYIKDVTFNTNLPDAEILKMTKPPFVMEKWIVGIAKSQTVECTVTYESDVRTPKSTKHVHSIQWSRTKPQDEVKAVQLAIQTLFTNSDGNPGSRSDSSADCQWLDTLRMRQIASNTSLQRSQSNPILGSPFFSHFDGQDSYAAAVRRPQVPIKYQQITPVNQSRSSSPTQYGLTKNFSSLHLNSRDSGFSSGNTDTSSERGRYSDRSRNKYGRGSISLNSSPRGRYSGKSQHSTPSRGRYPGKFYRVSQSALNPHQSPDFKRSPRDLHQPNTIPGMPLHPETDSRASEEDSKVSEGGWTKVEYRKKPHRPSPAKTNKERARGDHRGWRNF

[10] = target: Serine/threonine-protein kinase pim-2 (Homo sapiens, UniProt Q9P1W9); format: functional;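 also: value comes from a broad kinase panel profiling study in which PIM2 was one of the panel members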
Serine/threonine-protein kinase pim-2, sequence (Q9P1W9 whole entry): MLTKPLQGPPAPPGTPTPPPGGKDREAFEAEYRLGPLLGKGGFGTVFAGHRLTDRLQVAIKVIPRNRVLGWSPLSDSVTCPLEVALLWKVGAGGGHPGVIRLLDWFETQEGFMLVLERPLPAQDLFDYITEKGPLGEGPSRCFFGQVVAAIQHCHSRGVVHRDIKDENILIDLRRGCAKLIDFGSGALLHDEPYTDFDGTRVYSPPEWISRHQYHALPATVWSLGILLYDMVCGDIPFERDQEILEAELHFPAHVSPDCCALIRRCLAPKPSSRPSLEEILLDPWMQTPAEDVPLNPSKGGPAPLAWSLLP

[11] = target: T2, Sentrin-specific protease 6 (Homo sapiens, UniProt Q9GZR1); format: functional;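 also: Luminescence-based dose-response confirmatory assay of SENP6 inhibition, following up an ultra-high-throughput screen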
T2 sequence (Q9GZR1 whole entry): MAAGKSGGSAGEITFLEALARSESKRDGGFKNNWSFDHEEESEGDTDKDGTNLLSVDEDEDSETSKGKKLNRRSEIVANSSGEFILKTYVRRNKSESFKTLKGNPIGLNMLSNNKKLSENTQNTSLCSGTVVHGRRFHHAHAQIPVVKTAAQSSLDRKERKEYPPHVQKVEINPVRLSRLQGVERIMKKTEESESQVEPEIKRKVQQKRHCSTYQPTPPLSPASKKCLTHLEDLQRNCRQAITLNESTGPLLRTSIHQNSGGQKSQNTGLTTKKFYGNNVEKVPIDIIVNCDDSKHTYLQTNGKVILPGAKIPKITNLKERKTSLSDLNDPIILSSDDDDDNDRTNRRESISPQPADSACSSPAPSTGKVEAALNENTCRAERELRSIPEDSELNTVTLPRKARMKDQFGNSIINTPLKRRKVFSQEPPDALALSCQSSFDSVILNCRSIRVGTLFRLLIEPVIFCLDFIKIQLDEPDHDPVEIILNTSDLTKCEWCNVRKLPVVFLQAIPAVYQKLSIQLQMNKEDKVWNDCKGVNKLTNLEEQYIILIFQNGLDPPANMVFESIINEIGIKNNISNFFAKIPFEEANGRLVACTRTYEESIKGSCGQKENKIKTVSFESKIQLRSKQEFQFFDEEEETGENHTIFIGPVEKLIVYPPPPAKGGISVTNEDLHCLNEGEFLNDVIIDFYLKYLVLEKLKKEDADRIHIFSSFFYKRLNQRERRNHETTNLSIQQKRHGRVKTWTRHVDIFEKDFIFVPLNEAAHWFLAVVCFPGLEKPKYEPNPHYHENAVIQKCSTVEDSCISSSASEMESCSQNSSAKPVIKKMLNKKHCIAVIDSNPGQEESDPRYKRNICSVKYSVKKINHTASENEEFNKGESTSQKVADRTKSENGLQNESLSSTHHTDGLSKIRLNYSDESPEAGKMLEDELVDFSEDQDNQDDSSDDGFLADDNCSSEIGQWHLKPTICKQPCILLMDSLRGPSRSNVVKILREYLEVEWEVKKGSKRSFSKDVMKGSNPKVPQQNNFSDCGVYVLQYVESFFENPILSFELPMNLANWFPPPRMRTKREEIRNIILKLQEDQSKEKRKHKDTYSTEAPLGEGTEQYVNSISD

[12] = target: T3, Sentrin-specific protease 8 (Homo sapiens, UniProt Q96LD8); format: functional;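 also: luminescence read-out of SENP8 inhibition, dose-response confirmation following an ultra-high-throughput screen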
T3 sequence (Q96LD8 whole entry): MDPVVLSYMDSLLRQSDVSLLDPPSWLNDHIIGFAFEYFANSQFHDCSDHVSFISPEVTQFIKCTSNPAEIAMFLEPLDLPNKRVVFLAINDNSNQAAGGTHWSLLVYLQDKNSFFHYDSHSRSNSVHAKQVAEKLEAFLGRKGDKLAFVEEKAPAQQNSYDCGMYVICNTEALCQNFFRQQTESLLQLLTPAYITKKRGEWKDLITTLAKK

With `CCN(CC)CCCC(C)n1c2nc(=O)[nH]c(=O)c-2nc2cc(Cl)ccc21` (centres undefined) as the compound, how does the AC50 [1] read?
Its AC50 is 370 nM (active).

What about the EC50 [2] of the same compound?
The EC50 was > 54700 nM (inactive).

For `OC1CCC(Nc2nc(Cl)cc(-c3c[nH]c4ncccc34)n2)CC1` (centres undefined), which Ki [3] is on record?
Its Ki is 100 nM (active).

And the pKi [3]?
The pKi was 7.

What about the Ki [4] of the same compound?
Its Ki is 31.6 nM (active).

And the pKi [4]?
Its pKi is 7.5.

What about the Ki [5] of the same compound?
The Ki was 12.6 nM (active).

What about the pKi [5] of the same compound?
Its pKi is 7.9.

What about the Ki [6] of the same compound?
Its Ki is 1260 nM (active).

What about the pKi [6] of the same compound?
Its pKi is 5.9.

And the Ki [7]?
Its Ki is 31.6 nM (active).

What about the pKi [7] of the same compound?
The pKi was 7.5.

And the Ki [8]?
Its Ki is 50.1 nM (active).

And the pKi [8]?
Its pKi is 7.3.

What about the Ki [9] of the same compound?
Its Ki is > 7940 nM (inactive).

What about the Ki [10] of the same compound?
The Ki was 398 nM (active).

And the pKi [10]?
The pKi was 6.4.

Which IC50 [11] does the source give for `O=C(COC(=O)c1ccc([N+](=O)[O-])s1)Nc1ccc(F)cc1` here?
The IC50 was 3820 nM (active).

And the IC50 [12]?
Its IC50 is 4050 nM (active).
